Measurements taken from the NIST ThermoML archive (doi:10.1016/j.jct.2006.08.009).

Test: mn = molality of the nth substance listed, in mol/kg
Settings: 350 kPa, Liquid; for apparent molar heat capacity: Extra sensitive DSC

OC[C@@H](O)[C@H](O)[C@H](O)[C@@H](O)CO [dulcitol] + O
Settings	apparent molar heat capacity [J/K/mol]	mass density [kg/m3]
278.15 K, m1 = 0.0188	374	1001.19
278.15 K, m1 = 0.0418	369	1002.77
278.15 K, m1 = 0.0698	379.2	1004.44
278.15 K, m1 = 0.0986	380.1	1006.47
278.15 K, m1 = 0.119	370.3	1007.99
278.15 K, m1 = 0.1492	379.2	1009.86
283.15 K, m1 = 0.0188	394	1000.99
283.15 K, m1 = 0.0418	389	1002.48
283.15 K, m1 = 0.0698	397.8	1004.2
283.15 K, m1 = 0.0986	398.6	1006.13
283.15 K, m1 = 0.119	388.5	1007.58
283.15 K, m1 = 0.1492	397.5	1009.47
288.15 K, m1 = 0.0188	409	1000.42
288.15 K, m1 = 0.0418	405	1001.85
288.15 K, m1 = 0.0698	412.3	1003.61
288.15 K, m1 = 0.0986	413.3	1005.5
288.15 K, m1 = 0.119	402.7	1006.94
288.15 K, m1 = 0.1492	412	1008.75
293.15 K, m1 = 0.0188	423	–
293.15 K, m1 = 0.0418	418	–
293.15 K, m1 = 0.0698	425.3	–
293.15 K, m1 = 0.0986	426.5	–
293.15 K, m1 = 0.119	416.6	–
293.15 K, m1 = 0.1492	425	–
298.15 K, m1 = 0.0188	434	998.35
298.15 K, m1 = 0.0418	430	999.74
298.15 K, m1 = 0.0698	436.4	1001.5
298.15 K, m1 = 0.0986	437.6	1003.47
298.15 K, m1 = 0.119	428.5	1004.74
298.15 K, m1 = 0.1492	436.1	1006.52
303.15 K, m1 = 0.0188	444	–
303.15 K, m1 = 0.0418	439	–
303.15 K, m1 = 0.0698	446	–
303.15 K, m1 = 0.0986	447.4	–
303.15 K, m1 = 0.119	438.9	–
303.15 K, m1 = 0.1492	445.8	–
308.15 K, m1 = 0.0188	453	995.36
308.15 K, m1 = 0.0418	448	996.65
308.15 K, m1 = 0.0698	454.4	998.44
308.15 K, m1 = 0.0986	456	1000.21
308.15 K, m1 = 0.119	447.9	1001.54
308.15 K, m1 = 0.1492	454.3	1003.38
313.15 K, m1 = 0.0188	461	–
313.15 K, m1 = 0.0418	455.7	–
313.15 K, m1 = 0.0698	462.1	–
313.15 K, m1 = 0.0986	463.5	–
313.15 K, m1 = 0.119	456	–
313.15 K, m1 = 0.1492	461.9	–
318.15 K, m1 = 0.0188	468	991.52
318.15 K, m1 = 0.0418	462.7	992.87
318.15 K, m1 = 0.0698	468.8	994.59
318.15 K, m1 = 0.0986	470.3	996.35
318.15 K, m1 = 0.119	463.3	997.6
318.15 K, m1 = 0.1492	468.7	999.44
323.15 K, m1 = 0.0188	475	–
323.15 K, m1 = 0.0418	469	–
323.15 K, m1 = 0.0698	474.9	–
323.15 K, m1 = 0.0986	476.5	–
323.15 K, m1 = 0.119	469.8	–
323.15 K, m1 = 0.1492	474.8	–
328.15 K, m1 = 0.0188	481	986.98
328.15 K, m1 = 0.0418	474.7	988.34
328.15 K, m1 = 0.0698	480.5	990.01
328.15 K, m1 = 0.0986	482.1	991.76
328.15 K, m1 = 0.119	475.7	993.01
328.15 K, m1 = 0.1492	480.4	994.81
333.15 K, m1 = 0.0188	486	–
333.15 K, m1 = 0.0418	479.8	–
333.15 K, m1 = 0.0698	485.6	–
333.15 K, m1 = 0.0986	487.2	–
333.15 K, m1 = 0.119	481	–
333.15 K, m1 = 0.1492	485.5	–
338.15 K, m1 = 0.0188	491	981.81
338.15 K, m1 = 0.0418	484.5	983.19
338.15 K, m1 = 0.0698	490.1	984.85
338.15 K, m1 = 0.0986	491.8	986.55
338.15 K, m1 = 0.119	486	987.85
338.15 K, m1 = 0.1492	490.1	989.64
343.15 K, m1 = 0.0188	495	–
343.15 K, m1 = 0.0418	488.6	–
343.15 K, m1 = 0.0698	494.2	–
343.15 K, m1 = 0.0986	495.9	–
343.15 K, m1 = 0.119	490.4	–
343.15 K, m1 = 0.1492	494.3	–
348.15 K, m1 = 0.0188	499	976.1
348.15 K, m1 = 0.0418	492.2	977.46
348.15 K, m1 = 0.0698	497.9	979.12
348.15 K, m1 = 0.0986	499.6	980.85
348.15 K, m1 = 0.119	494.4	982.09
348.15 K, m1 = 0.1492	497.9	983.86
353.15 K, m1 = 0.0188	502	–
353.15 K, m1 = 0.0418	495.4	–
353.15 K, m1 = 0.0698	501.2	–
353.15 K, m1 = 0.0986	502.9	–
353.15 K, m1 = 0.119	498.1	–
353.15 K, m1 = 0.1492	501.2	–
358.15 K, m1 = 0.0188	504	969.86
358.15 K, m1 = 0.0418	498.1	971.46
358.15 K, m1 = 0.0698	503.5	972.88
358.15 K, m1 = 0.0986	505.2	974.54
358.15 K, m1 = 0.119	501.3	975.86
358.15 K, m1 = 0.1492	503.6	977.9
363.15 K, m1 = 0.0188	506	–
363.15 K, m1 = 0.0418	499.6	–
363.15 K, m1 = 0.0698	504.4	–
363.15 K, m1 = 0.0986	505.7	–
363.15 K, m1 = 0.119	504.1	–
363.15 K, m1 = 0.1492	504.3	–
368.15 K, m1 = 0.0188	–	963.12
368.15 K, m1 = 0.0418	–	964.48
368.15 K, m1 = 0.0698	–	966.14
368.15 K, m1 = 0.0986	–	967.86
368.15 K, m1 = 0.119	–	969.19
368.15 K, m1 = 0.1492	–	970.84
